Assays:
[1] = molecular target: estrogen receptor (Homo sapiens (Human), UniProt P03372); assay: Western blot analysis of estrogen receptor downregulation; assay type: cell-based; conditions: 10 nM
Protocol: Whole-cell extracts of cultured cells were prepared in lysis buffer (200 mmol/L Tris, 1% Triton X-100, 5 mmol/L EDTA) with protease and phosphatase inhibitor cocktails (1:50, both from Sigma-Aldrich) after scraping from the culture plates. Protein concentration was measured using the Bradford method (Bio-Rad). Proteins were separated under denaturing conditions and blotted onto nitrocellulose membrane (Bio-Rad) using a wet transfer system (Bio-Rad). Images of blots were acquired on a Bio-Rad ChemiDoc System following incubation with SuperSignal West Dura luminol solution (Thermo Fisher Scientific).

[2] = test system: MCF-7:WS8 cells; assay: Cell viability of MCF7:WS8, DNA content assay; assay type: cell-based, human
[3] = molecular target: ERα (Homo sapiens (Human), UniProt P03372); assay: In-cell western (ICW) ER downregulation/degradation in MCF-7:WS8 cells; assay type: cell-based; conditions: Table 2; read-out: IC50 of ER downregulation from in-cell western blot experiments
[4] = test system: MCF-7:TAM1 tumors; assay: MCF-7:TAM1 xenograft model of endocrine-resistant ER+ breast cancer; assay type: in vivo, mice; conditions: 100 mg/kg, oral gavage daily

estrogen receptor, sequence (P03372 whole entry): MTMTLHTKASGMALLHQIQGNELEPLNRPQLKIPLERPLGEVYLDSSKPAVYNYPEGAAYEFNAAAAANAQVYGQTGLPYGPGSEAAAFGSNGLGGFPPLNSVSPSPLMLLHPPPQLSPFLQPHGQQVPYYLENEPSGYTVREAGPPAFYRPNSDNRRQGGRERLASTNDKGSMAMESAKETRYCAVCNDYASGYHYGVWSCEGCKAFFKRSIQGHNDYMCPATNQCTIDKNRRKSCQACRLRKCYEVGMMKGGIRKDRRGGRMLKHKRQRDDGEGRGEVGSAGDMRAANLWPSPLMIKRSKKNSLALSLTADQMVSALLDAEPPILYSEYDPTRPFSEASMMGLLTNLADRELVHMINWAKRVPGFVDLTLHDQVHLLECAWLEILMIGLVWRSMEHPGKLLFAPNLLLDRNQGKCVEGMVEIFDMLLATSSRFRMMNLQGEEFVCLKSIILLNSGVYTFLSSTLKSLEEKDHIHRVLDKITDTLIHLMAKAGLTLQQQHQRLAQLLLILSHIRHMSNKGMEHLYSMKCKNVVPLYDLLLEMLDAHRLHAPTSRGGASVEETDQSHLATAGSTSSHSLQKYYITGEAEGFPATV
ERα, sequence (P03372 whole entry): as above

SMILES	Estrogen receptor downregulation (western blot) [1]	MCF-7WS8 IC50 [2]	other results
Cc1cc(F)ccc1C(=O)c1sc2cc(O)ccc2c1Oc1ccc(/C=C/C(=O)O)cc1 [Compound 1, (E)-3-(4-((2-(4-Fluoro-2-methylbenzoyl)-6-hydroxybenzo[b]thiophen-3-yl)oxy)phenyl)acrylic acid]	downregulate the estrogen receptor		
O=C(O)/C=C/c1ccc(Oc2c(C(=O)c3ccc(O)cc3)sc3cc(O)ccc23)cc1 [Compound 2, (E)-3-(4-((6-Hydroxy-2-(4-hydroxybenzoyl)benzo[b]thiophen-3-yl)oxy)phenyl) acrylic acid]		No Inhiibition	
CCc1ccccc1C(=O)c1sc2cc(O)ccc2c1Oc1ccc(/C=C/C(=O)O)cc1 [Compound 3, (E)-3-(4-((2-(2-Ethylbenzoyl)-6-hydroxybenzo[b]thiophen-3-yl)oxy)phenyl) acrylic acid]	downregulate the estrogen receptor		
Cc1ccccc1C(=O)c1sc2cc(O)ccc2c1Oc1ccc(/C=C/C(=O)O)cc1 [Compound 5, (E)-3-(4-((6-Hydroxy-2-(2-methylbenzoyl)benzo[b]thiophen-3-yl)oxy)phenyl) acrylic acid]	downregulate the estrogen receptor		
Cc1ccc(F)cc1C(=O)c1sc2cc(O)ccc2c1Oc1ccc(/C=C/C(=O)O)cc1 [Compound 6]	downregulate the estrogen receptor		
Cc1ccsc1C(=O)c1sc2cc(O)ccc2c1Oc1ccc(/C=C/C(=O)O)cc1 [Compound 7, (E)-3-(4-((6-Hydroxy-2-(3-methylthiophene-2-carbonyl)benzo[b]thiophen-3-yl)oxy)phenyl) acrylic acid]	downregulate the estrogen receptor		IC50 [3]: 4.6 nM
Cc1cc(F)ccc1C(=O)c1sc2cc(O)ccc2c1Oc1ccc(NC(=O)C(=O)O)cc1 [Compound 18, 2-((4-((2-(4-Fluoro-2-methylbenzoyl)-6-hydroxybenzo[b]thiophen-3-yl)oxy)phenyl)amino)-2-oxoacetic acid]		No Inhibition	
Cc1ccc(C(=O)c2sc3cc(O)ccc3c2Oc2ccc(NC(=O)C(=O)O)cc2)c(C)c1 [Compound 19, 2-((4-((2-(2,4-Dimethylbenzoyl)-6-hydroxybenzo[b]thiophen-3-yl)oxy)phenyl)amino)-2-oxoacetic acid]		No inhibition	
CC/C(=C(\c1ccccc1)c1ccc(OCCN(C)C)cc1)c1ccccc1 [Tamoxifen, tamoxifen]			Effect on tumor [4]: entirely without effect

Reference: patent US12054469B2, “Benzothiophene-based selective estrogen receptor downregulator compounds” (The Board of Trustees of the University of Illinois, priority 2015, dated 2024)
